The text below walks through data of ChEMBL document CHEMBL5291721, “A preclinical secondary pharmacology resource illuminates target-adverse drug reaction associations of marketed drugs” (Nat Commun, 2023).

Test [1] addresses Acetylcholinesterase (Homo sapiens, UniProt P22303). Format: functional.
The target of test [2] is T1, Alpha-2A adrenergic receptor (Homo sapiens, UniProt P08913).
T1 sequence (P08913 whole entry): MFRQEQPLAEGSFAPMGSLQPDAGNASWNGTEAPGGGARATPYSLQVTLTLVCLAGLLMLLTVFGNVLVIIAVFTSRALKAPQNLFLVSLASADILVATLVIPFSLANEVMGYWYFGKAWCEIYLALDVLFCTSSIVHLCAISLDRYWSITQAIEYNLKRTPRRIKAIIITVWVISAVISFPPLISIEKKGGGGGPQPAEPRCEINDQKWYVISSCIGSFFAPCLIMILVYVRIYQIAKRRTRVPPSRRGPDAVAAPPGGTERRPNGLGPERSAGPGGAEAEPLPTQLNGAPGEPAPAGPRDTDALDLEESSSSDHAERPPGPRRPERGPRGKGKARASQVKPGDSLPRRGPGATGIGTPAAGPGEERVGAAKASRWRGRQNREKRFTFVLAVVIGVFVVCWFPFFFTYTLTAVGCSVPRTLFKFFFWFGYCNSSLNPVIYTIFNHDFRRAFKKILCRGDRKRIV

Test [3] has as its target T2, Androgen receptor (Homo sapiens, UniProt P10275).
T2 sequence (P10275 whole entry): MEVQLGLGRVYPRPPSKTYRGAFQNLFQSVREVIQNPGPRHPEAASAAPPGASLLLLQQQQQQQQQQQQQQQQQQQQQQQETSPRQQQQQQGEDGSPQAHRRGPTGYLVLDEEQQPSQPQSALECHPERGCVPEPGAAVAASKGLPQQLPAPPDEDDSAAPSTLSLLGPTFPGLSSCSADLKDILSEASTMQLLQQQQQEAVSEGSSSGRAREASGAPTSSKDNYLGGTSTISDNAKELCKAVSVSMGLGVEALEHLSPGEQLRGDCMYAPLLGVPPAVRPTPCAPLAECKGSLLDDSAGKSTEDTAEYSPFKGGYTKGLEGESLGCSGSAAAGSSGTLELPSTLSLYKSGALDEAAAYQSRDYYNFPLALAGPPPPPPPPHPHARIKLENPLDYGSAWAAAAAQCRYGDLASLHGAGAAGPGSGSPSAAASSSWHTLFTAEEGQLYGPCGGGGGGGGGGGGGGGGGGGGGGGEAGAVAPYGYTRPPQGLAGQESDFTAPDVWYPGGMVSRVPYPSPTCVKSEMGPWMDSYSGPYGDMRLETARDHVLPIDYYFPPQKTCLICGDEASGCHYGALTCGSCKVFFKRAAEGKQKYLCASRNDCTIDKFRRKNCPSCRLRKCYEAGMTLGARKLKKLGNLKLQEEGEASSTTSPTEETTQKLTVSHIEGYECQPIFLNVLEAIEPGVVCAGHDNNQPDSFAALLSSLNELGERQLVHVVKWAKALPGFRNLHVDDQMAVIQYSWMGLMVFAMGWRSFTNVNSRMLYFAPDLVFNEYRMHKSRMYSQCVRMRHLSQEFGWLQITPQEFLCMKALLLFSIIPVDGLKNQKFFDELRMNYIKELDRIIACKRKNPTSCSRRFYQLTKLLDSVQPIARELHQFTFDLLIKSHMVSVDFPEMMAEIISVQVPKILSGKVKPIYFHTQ

The target of test [4] is D(1A) dopamine receptor (Homo sapiens, UniProt P21728).
Test [5] deals with D(3) dopamine receptor (Homo sapiens, UniProt P35462).
The target in test [6] is Gamma-aminobutyric acid receptor subunit alpha-1/alpha-2/beta-2/gamma-2 (Homo sapiens, UniProt P14867+P18507+P47869+P47870). The class given is protein-complex assay.
Test [7] concerns the target T3, Amine oxidase [flavin-containing] A (Homo sapiens, UniProt P21397).
T3 sequence (P21397 whole entry): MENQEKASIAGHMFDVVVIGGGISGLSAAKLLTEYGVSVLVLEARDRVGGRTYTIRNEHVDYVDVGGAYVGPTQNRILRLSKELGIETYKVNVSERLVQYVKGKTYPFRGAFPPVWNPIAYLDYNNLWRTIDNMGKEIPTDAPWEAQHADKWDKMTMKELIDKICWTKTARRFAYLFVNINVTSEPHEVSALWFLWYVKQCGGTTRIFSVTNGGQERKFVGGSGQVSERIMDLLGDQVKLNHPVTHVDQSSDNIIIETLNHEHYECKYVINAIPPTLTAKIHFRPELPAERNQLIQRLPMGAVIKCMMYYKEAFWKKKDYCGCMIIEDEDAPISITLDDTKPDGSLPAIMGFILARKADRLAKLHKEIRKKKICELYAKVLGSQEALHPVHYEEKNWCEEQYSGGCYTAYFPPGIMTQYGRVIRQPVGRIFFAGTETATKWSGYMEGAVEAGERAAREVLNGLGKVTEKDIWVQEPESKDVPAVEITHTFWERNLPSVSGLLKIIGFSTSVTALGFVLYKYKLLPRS
Format: functional.

The target of test [8] is Sodium-dependent noradrenaline transporter (Homo sapiens, UniProt P23975).
Test [9] has as its target Sodium-dependent dopamine transporter (Homo sapiens, UniProt Q01959).
For test [10], the target named is T4, Gamma-aminobutyric acid receptor subunit alpha-1 (Rattus norvegicus, UniProt P62813).
For test [11], the target named is T4, Gamma-aminobutyric acid receptor subunit alpha-1. The source holds these as a separate data set.
Test [12] concerns the target Delta-type opioid receptor (Homo sapiens, UniProt P41143).
For test [13], the target named is T5, Neuropeptide Y receptor type 1 (Homo sapiens, UniProt P25929).
T5 sequence (P25929 whole entry): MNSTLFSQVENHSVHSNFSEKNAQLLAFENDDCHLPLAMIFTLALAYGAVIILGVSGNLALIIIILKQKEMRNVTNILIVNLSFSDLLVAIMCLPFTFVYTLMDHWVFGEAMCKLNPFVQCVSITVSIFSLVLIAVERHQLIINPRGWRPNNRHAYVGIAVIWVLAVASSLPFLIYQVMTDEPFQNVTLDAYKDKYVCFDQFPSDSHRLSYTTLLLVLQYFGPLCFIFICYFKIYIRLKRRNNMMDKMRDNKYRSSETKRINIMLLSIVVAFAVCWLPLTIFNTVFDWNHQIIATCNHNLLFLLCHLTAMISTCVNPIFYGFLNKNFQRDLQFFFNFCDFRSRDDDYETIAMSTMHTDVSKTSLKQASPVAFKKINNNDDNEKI
Note: assay procedure not described here.

Chain of Gamma-aminobutyric acid receptor subunit alpha-1/alpha-2/beta-2/gamma-2 (P14867 whole entry): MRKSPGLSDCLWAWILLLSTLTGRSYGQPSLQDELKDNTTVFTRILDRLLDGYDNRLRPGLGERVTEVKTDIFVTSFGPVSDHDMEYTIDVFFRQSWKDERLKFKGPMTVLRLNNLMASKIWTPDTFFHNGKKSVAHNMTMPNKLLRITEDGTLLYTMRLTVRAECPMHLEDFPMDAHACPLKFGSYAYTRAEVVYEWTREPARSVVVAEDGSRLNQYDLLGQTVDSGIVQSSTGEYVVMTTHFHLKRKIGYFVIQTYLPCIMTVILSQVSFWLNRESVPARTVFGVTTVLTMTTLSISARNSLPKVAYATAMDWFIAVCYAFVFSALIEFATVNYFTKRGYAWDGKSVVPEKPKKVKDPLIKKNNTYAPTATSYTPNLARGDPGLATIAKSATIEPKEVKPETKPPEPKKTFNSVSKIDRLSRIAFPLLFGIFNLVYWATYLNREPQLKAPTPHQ
Chain of Gamma-aminobutyric acid receptor subunit alpha-1/alpha-2/beta-2/gamma-2 (P47870 whole entry): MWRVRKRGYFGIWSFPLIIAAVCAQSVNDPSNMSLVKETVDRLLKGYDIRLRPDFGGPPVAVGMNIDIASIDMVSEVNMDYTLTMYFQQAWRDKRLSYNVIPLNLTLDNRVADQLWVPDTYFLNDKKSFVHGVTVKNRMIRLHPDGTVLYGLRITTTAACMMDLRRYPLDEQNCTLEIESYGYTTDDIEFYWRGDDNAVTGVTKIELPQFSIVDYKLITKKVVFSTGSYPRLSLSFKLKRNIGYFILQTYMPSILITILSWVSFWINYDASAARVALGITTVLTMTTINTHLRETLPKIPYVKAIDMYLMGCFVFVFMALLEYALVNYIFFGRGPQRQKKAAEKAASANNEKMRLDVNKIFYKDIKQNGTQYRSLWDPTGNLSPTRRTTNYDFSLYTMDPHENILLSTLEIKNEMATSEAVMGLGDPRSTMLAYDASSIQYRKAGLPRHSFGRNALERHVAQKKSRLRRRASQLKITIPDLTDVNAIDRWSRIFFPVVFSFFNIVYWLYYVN
Chain of Gamma-aminobutyric acid receptor subunit alpha-1/alpha-2/beta-2/gamma-2 (P18507 whole entry): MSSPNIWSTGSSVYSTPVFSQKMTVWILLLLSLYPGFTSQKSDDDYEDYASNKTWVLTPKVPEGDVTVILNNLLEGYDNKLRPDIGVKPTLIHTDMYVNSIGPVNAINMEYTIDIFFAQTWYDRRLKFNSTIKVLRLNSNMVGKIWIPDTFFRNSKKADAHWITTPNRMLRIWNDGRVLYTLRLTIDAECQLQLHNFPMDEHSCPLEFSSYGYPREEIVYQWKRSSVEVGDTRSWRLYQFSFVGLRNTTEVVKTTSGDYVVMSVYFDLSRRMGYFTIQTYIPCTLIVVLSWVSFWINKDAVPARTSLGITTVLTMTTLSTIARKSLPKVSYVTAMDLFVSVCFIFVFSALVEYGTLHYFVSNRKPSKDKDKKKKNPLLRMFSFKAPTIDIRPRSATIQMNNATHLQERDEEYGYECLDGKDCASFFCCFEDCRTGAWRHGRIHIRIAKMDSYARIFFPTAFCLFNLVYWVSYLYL
Chain of Gamma-aminobutyric acid receptor subunit alpha-1/alpha-2/beta-2/gamma-2 (P47869 whole entry): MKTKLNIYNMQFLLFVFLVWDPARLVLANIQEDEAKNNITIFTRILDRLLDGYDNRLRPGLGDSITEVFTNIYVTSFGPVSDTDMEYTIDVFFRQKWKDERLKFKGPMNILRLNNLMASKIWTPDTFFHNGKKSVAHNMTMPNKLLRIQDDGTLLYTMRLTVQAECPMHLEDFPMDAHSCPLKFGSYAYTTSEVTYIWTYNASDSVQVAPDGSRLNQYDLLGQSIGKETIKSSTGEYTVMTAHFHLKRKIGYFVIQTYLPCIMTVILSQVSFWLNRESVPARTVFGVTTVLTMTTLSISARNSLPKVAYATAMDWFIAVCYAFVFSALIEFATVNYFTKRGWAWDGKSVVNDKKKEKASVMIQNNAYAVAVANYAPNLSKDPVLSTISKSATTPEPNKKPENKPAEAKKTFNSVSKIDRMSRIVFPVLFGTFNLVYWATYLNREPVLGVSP
T4 sequence (P62813 whole entry): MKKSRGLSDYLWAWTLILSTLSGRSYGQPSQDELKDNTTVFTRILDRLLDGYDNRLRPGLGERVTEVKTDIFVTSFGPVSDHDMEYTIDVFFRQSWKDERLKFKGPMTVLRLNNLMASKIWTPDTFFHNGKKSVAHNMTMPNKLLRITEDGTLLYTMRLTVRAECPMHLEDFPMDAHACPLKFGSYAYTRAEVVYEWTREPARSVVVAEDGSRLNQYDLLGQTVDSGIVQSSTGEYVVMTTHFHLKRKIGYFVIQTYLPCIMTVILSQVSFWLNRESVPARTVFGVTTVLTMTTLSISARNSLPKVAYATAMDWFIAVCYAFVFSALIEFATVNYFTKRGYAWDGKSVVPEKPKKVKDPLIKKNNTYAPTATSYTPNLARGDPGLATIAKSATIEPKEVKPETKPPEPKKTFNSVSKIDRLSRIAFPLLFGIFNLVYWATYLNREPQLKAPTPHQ
Chain of Delta-type opioid receptor (P41143 whole entry): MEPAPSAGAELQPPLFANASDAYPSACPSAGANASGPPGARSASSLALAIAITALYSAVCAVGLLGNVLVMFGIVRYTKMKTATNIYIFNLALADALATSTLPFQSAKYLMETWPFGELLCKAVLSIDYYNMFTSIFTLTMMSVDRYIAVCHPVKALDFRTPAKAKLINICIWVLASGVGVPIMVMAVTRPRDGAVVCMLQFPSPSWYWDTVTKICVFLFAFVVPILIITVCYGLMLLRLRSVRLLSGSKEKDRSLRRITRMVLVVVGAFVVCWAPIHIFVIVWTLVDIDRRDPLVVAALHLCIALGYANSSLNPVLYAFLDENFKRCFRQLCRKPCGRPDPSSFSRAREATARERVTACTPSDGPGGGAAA
Chain of Sodium-dependent noradrenaline transporter (P23975 whole entry): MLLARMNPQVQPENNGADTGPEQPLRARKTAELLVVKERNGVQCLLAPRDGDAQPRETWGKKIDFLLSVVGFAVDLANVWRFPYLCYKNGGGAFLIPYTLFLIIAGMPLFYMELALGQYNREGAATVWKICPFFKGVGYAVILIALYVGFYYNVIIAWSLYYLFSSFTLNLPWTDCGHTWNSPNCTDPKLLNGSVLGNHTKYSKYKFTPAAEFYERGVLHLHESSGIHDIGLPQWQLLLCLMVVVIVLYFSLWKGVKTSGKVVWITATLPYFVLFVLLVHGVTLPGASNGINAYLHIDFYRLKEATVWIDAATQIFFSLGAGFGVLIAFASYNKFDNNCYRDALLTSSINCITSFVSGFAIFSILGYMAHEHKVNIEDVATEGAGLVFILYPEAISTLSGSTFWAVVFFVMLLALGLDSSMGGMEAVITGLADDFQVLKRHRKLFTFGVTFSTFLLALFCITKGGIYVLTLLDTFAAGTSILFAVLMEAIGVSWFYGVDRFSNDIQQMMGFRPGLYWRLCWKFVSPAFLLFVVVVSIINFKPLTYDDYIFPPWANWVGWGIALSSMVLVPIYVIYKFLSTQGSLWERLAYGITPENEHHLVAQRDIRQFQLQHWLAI
Chain of Sodium-dependent dopamine transporter (Q01959 whole entry): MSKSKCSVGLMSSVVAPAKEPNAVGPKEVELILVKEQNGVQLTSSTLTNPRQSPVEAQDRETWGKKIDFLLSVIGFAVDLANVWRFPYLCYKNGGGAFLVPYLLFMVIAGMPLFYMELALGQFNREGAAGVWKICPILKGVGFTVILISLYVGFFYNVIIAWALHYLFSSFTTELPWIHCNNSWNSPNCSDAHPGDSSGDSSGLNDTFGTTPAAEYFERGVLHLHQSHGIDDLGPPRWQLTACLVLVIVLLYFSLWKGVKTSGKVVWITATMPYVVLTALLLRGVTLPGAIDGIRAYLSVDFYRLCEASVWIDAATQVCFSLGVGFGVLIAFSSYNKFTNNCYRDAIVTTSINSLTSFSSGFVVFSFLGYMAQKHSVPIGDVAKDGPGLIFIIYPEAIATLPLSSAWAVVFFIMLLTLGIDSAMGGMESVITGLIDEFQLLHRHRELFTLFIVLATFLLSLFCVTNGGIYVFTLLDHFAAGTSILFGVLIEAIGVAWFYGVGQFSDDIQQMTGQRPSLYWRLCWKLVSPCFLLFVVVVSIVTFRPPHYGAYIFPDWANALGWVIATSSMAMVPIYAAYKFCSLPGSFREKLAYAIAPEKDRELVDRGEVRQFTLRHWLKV
Chain of D(3) dopamine receptor (P35462 whole entry): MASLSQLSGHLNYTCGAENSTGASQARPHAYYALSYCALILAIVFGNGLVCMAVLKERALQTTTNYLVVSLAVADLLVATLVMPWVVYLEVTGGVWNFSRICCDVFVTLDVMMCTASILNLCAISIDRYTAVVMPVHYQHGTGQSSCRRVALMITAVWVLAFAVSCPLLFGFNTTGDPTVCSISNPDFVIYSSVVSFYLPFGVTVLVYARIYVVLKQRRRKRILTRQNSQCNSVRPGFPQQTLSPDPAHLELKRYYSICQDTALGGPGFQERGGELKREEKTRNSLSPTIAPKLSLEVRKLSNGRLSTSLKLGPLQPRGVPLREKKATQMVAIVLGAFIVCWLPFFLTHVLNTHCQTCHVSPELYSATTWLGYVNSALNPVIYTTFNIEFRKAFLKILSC
Chain of Acetylcholinesterase (P22303 whole entry): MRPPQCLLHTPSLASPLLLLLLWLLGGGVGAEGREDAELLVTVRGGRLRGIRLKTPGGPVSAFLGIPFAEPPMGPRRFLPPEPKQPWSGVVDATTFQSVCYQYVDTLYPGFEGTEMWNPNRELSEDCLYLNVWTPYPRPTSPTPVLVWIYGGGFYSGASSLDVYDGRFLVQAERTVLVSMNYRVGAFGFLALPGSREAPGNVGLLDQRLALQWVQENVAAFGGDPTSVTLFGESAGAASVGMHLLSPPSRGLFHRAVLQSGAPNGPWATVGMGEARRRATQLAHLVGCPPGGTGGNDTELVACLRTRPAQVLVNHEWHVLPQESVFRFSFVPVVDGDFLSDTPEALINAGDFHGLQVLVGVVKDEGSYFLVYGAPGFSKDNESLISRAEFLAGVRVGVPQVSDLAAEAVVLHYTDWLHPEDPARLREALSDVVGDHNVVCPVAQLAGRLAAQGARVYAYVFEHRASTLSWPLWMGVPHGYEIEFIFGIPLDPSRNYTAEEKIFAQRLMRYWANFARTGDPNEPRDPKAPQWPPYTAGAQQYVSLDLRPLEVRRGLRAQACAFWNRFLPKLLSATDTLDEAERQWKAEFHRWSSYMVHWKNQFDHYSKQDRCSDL

Usually AC50 stands for the midpoint of the concentration-response curve, whichever way the signal moves. The low end stands for greater potency, the high end for weaker potency. Turning to `CC(=O)[C@@]1(O)CC[C@H]2[C@@H]3C=C(C)C4=CC(=O)CC[C@]4(C)[C@H]3CC[C@@]21C`, the AC50 in test [1] is > 30 µM; in test [2], > 30 µM; in test [3], 0.0119 µM; in test [4], > 30 µM; in [5] it was > 30 µM; in test [6] it was > 30 µM. Besides, the AC50 in [7], in test [8] and in test [9] was > 30 µM each time.
Regarding `N[C@H]1C(O)O[C@H](CO)[C@@H](O)[C@@H]1O` (stereo not given in full) [GLUCOSAMINE], the half-maximal activity concentration (AC50) in test [1], in [2], in test [3], in test [4], in test [5] and in [6] was > 30 µM in each case. The half-maximal activity concentration (AC50) in test [7], in test [8] and in test [9] was > 30 µM each time.
Turning to `CCOc1ccccc1C(N)=O` [ETHENZAMIDE], the AC50 in test [1], in [2], in test [3], in [4], in test [5] and in [6] was > 30 µM throughout. For the same molecule, the AC50 in test [7], in test [8] and in test [9] was > 30 µM each time.
Take `CN1CCN(C2=Nc3ccccc3Sc3ccc(Cl)cc32)CC1` [CLOTHIAPINE]: the half-maximal activity concentration (AC50) in test [1] was > 30 µM; in test [2], 3.47 µM; in test [3], > 30 µM; in test [4], 0.0061 µM; in [5], 0.0061 µM; in test [10], > 30 µM. Further, the AC50 in test [11] is > 30 µM; in test [7] it was > 30 µM; in test [12], 22 µM; in [8], 0.76 µM; in test [9], 3.62 µM.
With `O=[N+]([O-])c1cn2c(n1)OC[C@@H](OCc1ccc(OC(F)(F)F)cc1)C2` [PRETOMANID], the concentration at half-maximal activity (AC50) is > 30 µM in test [1]; > 30 µM in [2]; > 30 µM in test [3]; > 30 µM in [4]; > 30 µM in test [5]; > 10 µM in [10]. The half-maximal activity concentration (AC50) in test [11] was > 30 µM; in [7], > 30 µM; in test [13], > 30 µM; in test [12] it was > 10 µM; in test [8] it was > 30 µM; in [9] it was > 30 µM.
With `CCOc1ccc(Cc2cc([C@@H]3O[C@H](CO)[C@@H](O)[C@H](O)[C@H]3O)ccc2Cl)cc1` [DAPAGLIFLOZIN], the concentration at half-maximal activity (AC50) in [1] was > 30 µM; in test [2], > 30 µM; in [3] it was > 30 µM; in test [4] it was > 30 µM; in test [5], > 30 µM; in [10], > 10 µM. For the same molecule, the half-maximal activity concentration (AC50) in test [11], in test [7], in test [13], in test [12], in test [8] and in test [9] was > 30 µM each time.
Turning to `CC[C@H]1CN2CC[C@H]1C[C@H]2[C@H](O)c1ccnc2ccc(OC)cc12` [HYDROQUININE], the AC50 in test [1] is > 30 µM; in test [2] it was 3.59 µM; in test [3], > 30 µM; in [4], > 30 µM; in test [5] it was > 30 µM; in test [11] it was > 30 µM. The concentration at half-maximal activity (AC50) in [7] is > 30 µM; in [8] it was > 30 µM; in test [9] it was 29.1 µM.
In the case of `CC(=O)OCC(=O)[C@@]1(O)CC[C@H]2[C@@H]3CCC4=CC(=O)C=C[C@]4(C)[C@@]3(Cl)[C@@H](Cl)C[C@@]21C` [DICHLORISONE ACETATE], the AC50 in test [1] is > 30 µM; in test [2] it was > 30 µM; in test [3], 0.128 µM; in test [4] it was > 30 µM; in test [5], > 30 µM; in test [11] it was > 30 µM. In addition, the AC50 in test [7], in test [8] and in [9] was > 30 µM each time.
For the molecule `CCCCS(=O)(=O)N[C@@H](Cc1ccc(OCCCCC2CCNCC2)cc1)C(=O)O` [TIROFIBAN], the AC50 in test [1], in test [2], in test [3], in test [4], in [5] and in [11] was > 30 µM each time. Also, the AC50 in [7], in [8] and in test [9] was > 30 µM in each case.
As to `CC(C)(C)NCC(O)COc1cccc2c1SCCC2` (stereo not given) [TERTATOLOL], the AC50 in [1] is > 30 µM; in test [2], 6.6 µM; in test [3] it was > 30 µM; in test [4], > 30 µM; in test [6], > 30 µM; in [7], > 30 µM. Further, the figures for the AC50 in test [8] and in [9] were 29.6 µM and > 30 µM, respectively.
`CC1=C(/C=C/C(C)=C/C=C/C(C)=C/C=C/C=C(C)/C=C/C=C(C)/C=C/C2=C(C)CCCC2(C)C)C(C)(C)CCC1` [BETA CAROTENE]: the concentration at half-maximal activity (AC50) in test [1] was > 30 µM; in test [2] it was > 30 µM; in test [3], > 30 µM; in [4], > 30 µM; in test [5] it was 20.8 µM; in test [11], > 30 µM. Also, the AC50 in test [7], in [8] and in test [9] was > 30 µM each time.
For `O=C(O)c1ccccc1C(=O)Nc1ccc(S(=O)(=O)Nc2nccs2)cc1` [PHTHALYLSULFATHIAZOLE], the AC50 in test [1], in [2], in test [3], in test [4], in test [5] and in test [11] was > 30 µM throughout. In addition, the AC50 in [7], in [8] and in test [9] was > 30 µM in each case.
